Measurements published in publication PMC11839852, “Preclinical comparison of (radio)lanthanides using mass spectrometry and nuclear imaging techniques: biodistribution of lanthanide-based tumor-targeting agents and lanthanides in ionic form” (European Journal of Nuclear Medicine and Molecular Imaging, 2024).
Marks after values point to notes of the source that are not given here.

Columns and labels:
[1] = system: non-tumor-bearing immunocompetent FVB mice; experiment: Dual-isotope SPECT/CT imaging of [177Lu]LuCl3 and [161Tb]TbCl3; format: in vivo; settings: radiolanthanides in chloride form
Procedure: Dual-isotope SPECT studies with mice were performed as previously reported. Tumor-bearing nude mice (n = 2‒3 for each type of radioconjugate) were injected with 20 MBq (1 nmol) of a mixture of ^177Lu- and ^161Tb-labeled tumor-targeting agents (each 10 MBq, 0.5 nmol) diluted in saline containing 0.05% BSA. Non-tumor-bearing immunocompetent FVB mice (n = 2) were injected with 20 MBq of a mixture of [^177Lu]LuCl3 (10 MBq, 13.8 pmol) and [^161Tb]TbCl3 (10 MBq, 14.3 pmol) diluted with saline containing 0.05% BSA with a final pH value of 4.5. Additional mice (n = 2) were injected with colloids of lutetium-177 and terbium-161 obtained by diluting the chloride salts with PBS of pH 7.4 (Supplementary Material). SPECT/CT images were acquired 1 h, 4 h and 24 h after injection of the activity solutions using a dedicated small-animal SPECT/CT scanner (NanoSPECT/CT, Mediso Medical Imaging Systems, Budapest, Hungary) and the Nucline software (version 1.02, Mediso Ltd., Budapest, Hungary). Counts stemming from the γ-lines of lutetium-177 (112.9 keV ± 10% and 208.4 ± 10%) and the γ-lines and x-rays of terbium-161 (47.7 keV ± 10% and 74.6 keV ± 10%) were simultaneously registered using the respective energy windows for each radionuclide. […]

[2] = system: non-tumor-bearing immunocompetent FVB mice; experiment: Biodistribution of lanthanide chloride salts LnCl3 (multiplexed ICP-MS); format: in vivo; settings: for Tissue uptake: Blood / Tissue uptake: Bone / Tissue uptake: Brain / Tissue uptake: Heart / Tissue uptake: Intestines / Tissue uptake: Kidneys / Tissue uptake: Liver / Tissue uptake: Lung / Tissue uptake: Muscle / Tissue uptake: Pancreas / Tissue uptake: Salivary glands / Tissue uptake: Spleen / Tissue uptake: Stomach: non-tumor-bearing mice
PC-3 PIP tumor cells = experiment: In vitro cell uptake of lanthanide chloride salts; format: cell-based, human
Procedure: (§1) A mixture of equal molar amounts of the lanthanide chloride salts (100 nM stock solutions of ^natLuCl3, ^natTbCl3, ^natGdCl3, and ^natEuCl3, diluted in saline with an adjusted pH value to 3.5‒4.0) was prepared to obtain a final concentration of 10 pmol/mL (2.5 pmol/mL per lanthanide salt) and tested with AR42J, PC-3 PIP and KB tumor cells according to the same protocol as described for the Ln-labeled biomolecules (Supplementary Material). Analogous in vitro cell uptake studies were also performed with lanthanide metal complexes of diethylenetriaminepentaacetic acid (DTPA, Sigma Aldrich Chemie, Steinheim, Germany) to obtain a final concentration of 10 pmol/mL (2.5 pmol/mL per lanthanide complex) (Supplementary Material).
(§2) Cell uptake studies were performed in triplicate in 3‒6 independent experiments and the results presented as the average ± standard deviation (SD). Data were normalized to the values measured for the ^175Lu-labeled tumor targeting agent or [^175Lu]LuCl3, which were set as 100% and zero was defined as 0%. Statistical significance of the normalized data was assessed for the comparison of the values obtained for terbium, gadolinium and europium analogues with those obtained for the lutetium counterparts by applying one-way ANOVA with the Dunnett’s post-test using GraphPad Prism software (version 8). A p-value of < 0.05 was considered statistically significant.
(§3) Methods: The same experimental setting as described for Ln-labeled biomolecules was applied to perform uptake and internalization studies with the lanthanide salts (LnCl3; Ln = ^natLu, ^natTb, ^natGd and ^natEu). The applied solution was a mixture of the four lanthanide salts yielding a final concentration of 0.4 µM. Of these mixtures, 25 μL were added to the corresponding well with tumor cells. The cells were incubated for 1 h and 4 h, respectively, at 37 °C and 5% CO2. After incubation, the tumor cells were treated as described for the Ln-labeled biomolecules and processed for the measurement with ICP-MS.

KB tumor cells = experiment: In vitro cell uptake of lanthanide chloride salts; format: cell-based, human; settings: 1 h incubation
Procedure: as §1, §2, §3

AR42J tumor cells = experiment: In vitro cell uptake of lanthanide chloride salts; format: cell-based, rat
Procedure: as §1, §2, §3

[3] = 24 h p.i., estimated ratios (organ <0.5% ID/g)
[4] = 96 h p.i., estimated ratios (organ <0.5% ID/g)

[Cl][Lu]([Cl])[Cl] [[^177Lu]LuCl3]
Bone uptake on SPECT images [1]: higher bone uptake

[Cl][Tb]([Cl])[Cl] [[^159Tb]TbCl3]
Organ ratios: Blood-to-bone ([2]; 1 h p.i.): 0.38 ± 0.08 | Organ ratios: Blood-to-liver ([2]; 1 h p.i.): 0.19 ± 0.05 | Organ ratios: Liver-to-bone ([2]; 1 h p.i.): 2.0 ± 0.3 | Tissue uptake: Blood ([2]; 1 h p.i.): 5.0 ± 0.9 % ID/g | Tissue uptake: Bone ([2]; 1 h p.i.): 13 ± 2 % ID/g | Tissue uptake: Brain ([2]; 1 h p.i.): 1.1 ± 0.8 % ID/g | Tissue uptake: Heart ([2]; 1 h p.i.): 4.8 ± 2.2 % ID/g | Tissue uptake: Intestines ([2]; 1 h p.i.): 2.6 ± 1.0 % ID/g | Tissue uptake: Kidneys ([2]; 1 h p.i.): 8.7 ± 2.5 % ID/g | Tissue uptake: Liver ([2]; 1 h p.i.): 27 ± 3 % ID/g | Tissue uptake: Lung ([2]; 1 h p.i.): 4.8 ± 1.2 % ID/g | Tissue uptake: Muscle ([2]; 1 h p.i.): 1.6 ± 0.9 % ID/g | Tissue uptake: Pancreas ([2]; 1 h p.i.): 2.2 ± 1.0 % ID/g | Tissue uptake: Salivary glands ([2]; 1 h p.i.): 2.4 ± 1.4 % ID/g | Tissue uptake: Spleen ([2]; 1 h p.i.): 6.1 ± 1.4 % ID/g | Tissue uptake: Stomach ([2]; 1 h p.i.): 6.0 ± 2.3 % ID/g | Organ ratios: Liver-to-bone ([2]; 24 h p.i.): 1.6 ± 0.5 | Organ ratios: Blood-to-bone [2, 3]: <0.04^* | Organ ratios: Blood-to-liver [2, 3]: <0.02^* | Tissue uptake: Blood ([2]; 24 h p.i.): <0.5 % ID/g | Tissue uptake: Bone ([2]; 24 h p.i.): 15 ± 2 % ID/g | Tissue uptake: Brain ([2]; 24 h p.i.): <0.5 % ID/g | Tissue uptake: Heart ([2]; 24 h p.i.): 0.76 ± 0.10 % ID/g | Tissue uptake: Intestines ([2]; 24 h p.i.): 0.54 ± 0.05 % ID/g | Tissue uptake: Kidneys ([2]; 24 h p.i.): 3.8 ± 0.8 % ID/g | Tissue uptake: Lung ([2]; 24 h p.i.): 1.0 ± 0.1 % ID/g | Tissue uptake: Muscle ([2]; 24 h p.i.): <0.5 % ID/g | Tissue uptake: Pancreas ([2]; 24 h p.i.): <0.5 % ID/g | Tissue uptake: Salivary glands ([2]; 24 h p.i.): <0.5 % ID/g | Tissue uptake: Spleen ([2]; 24 h p.i.): 5.0 ± 1.1 % ID/g | Tissue uptake: Stomach ([2]; 24 h p.i.): 1.8 ± 0.4 % ID/g | Tissue uptake: Liver ([2]; 24 h p.i., listed as natTb): ~ 22 % ID/g | Tissue uptake: Liver ([2]; 24 h p.i., listed as terbium): 22 ± 5 % ID/g | Organ ratios: Liver-to-bone ([2]; 96 h p.i.): 0.59 ± 0.18 | Organ ratios: Blood-to-bone [2, 4]: <0.03^* | Organ ratios: Blood-to-liver [2, 4]: <0.05^* | Tissue uptake: Blood ([2]; 96 h p.i.): <0.5 % ID/g | Tissue uptake: Bone ([2]; 96 h p.i.): 19 ± 4 % ID/g | Tissue uptake: Brain ([2]; 96 h p.i.): <0.5 % ID/g | Tissue uptake: Heart ([2]; 96 h p.i.): 0.73 ± 0.05 % ID/g | Tissue uptake: Intestines ([2]; 96 h p.i.): 0.52 ± 0.01 % ID/g | Tissue uptake: Kidneys ([2]; 96 h p.i.): 2.0 ± 0.1 % ID/g | Tissue uptake: Liver ([2]; 96 h p.i.): 11 ± 1 % ID/g | Tissue uptake: Lung ([2]; 96 h p.i.): 0.91 ± 0.10 % ID/g | Tissue uptake: Muscle ([2]; 96 h p.i.): <0.5 % ID/g | Tissue uptake: Pancreas ([2]; 96 h p.i.): <0.5 % ID/g | Tissue uptake: Salivary glands ([2]; 96 h p.i.): <0.5 % ID/g | Tissue uptake: Spleen ([2]; 96 h p.i.): 3.1 ± 0.2 % ID/g | Tissue uptake: Stomach ([2]; 96 h p.i.): 2.2 ± 0.4 % ID/g | Lanthanide uptake compared with [175Lu]LuCl3 (PC-3 PIP tumor cells): No significant difference | Detected amount compared with lutetium (KB tumor cells): significantly lower | Lanthanide uptake compared with [175Lu]LuCl3 (AR42J tumor cells): No significant difference
